Source: US20240099298A1, “BIOINSECTICIDAL COMPOSITIONS CONTAINING MONOTERPENES AND METHODS OF USE THEREOF” (priority 2017, published 2024)
Values after ≈ are worked out from the molar mass of the structure shown. Values joined by “and” are separate entries in the source; they are usually repeats but may differ in a detail not shown here. Equal entries are not always repeated. Where two headings read alike, the source gives them in different places.

Experiments:
[1] = test system: Tetranychus cinnabarinus (Boisduval) (spider mites)
Text: (§1) Median Lethal Concentration Tests. […] The species tested included Thrips (M. usitatus), spider mite (T. cinnabarinus), melon fly (B. cucuribitae), cockroach (B. lateralis), housefly (M. domestica), mosquito (A. aegypti), parasitic wasp (T. chilonis) and fruit fly (Drosophila melanogaster). After being exposed to the test chemicals for one hour, adult Thrips, spider mites, and roaches were transferred to another flask. In addition to fresh water, adult Thrips, spider mites, and roaches were then respectively fed with cowpea, fresh blade of eggplant, and peanut oil via filter. […] Mortality of melon fly was observed after three hours of exposure.

[2] = test system: Musca domestica (Linnaeus) (housefly)
Text: as §1

[3] = test system: Aedes aegypti (Linnaeus) (mosquito)
Text: as §1

[4] = test system: Bactrocera cucuribitae (Coquillett) (melon fly)
Text: as §1

[5] = test system: Blatta lateralis (Walker) (cockroach)
Text: as §1

[6] = test system: T. castaneum (red flour beetle); experiment: Median lethal time (LT50) test, red flour beetle; type: in vivo, Tribolium castaneum
Text: (§2) All treatments and controls were in triplicate.
(§3) Toxicity of Monoterpenes as Fumigants. […] Therefore, to determine how fast the monoterpenes act as fumigants, it was necessary to determine their LT50 values for the target organisms.

[7] = test system: A. japonicus (parasitic wasp); experiment: Median lethal time (LT50) test, parasitic wasp (natural enemy)
Method: (§4) Insect Egg Parasitic Wasp (Natural Enemy). […] Both species were purchased from a commercial source. One- to two-day-old adults (after eclosion) were used for fumigation tests.
Median Lethal Time (LT50) and Median Knockdown Concentration (KC50) Tests. Five species of adult insects or natural enemies were tested for LT50 values including melon fly (B. cucuribitae), red flour beetle (T. castaneum), Nitidulidae beetle (H. picinus), parasitic wasp (A. japonicus) and housefly (M. domestica). For each treatment and control, 20 insects at the developmental stages described above were placed individually without food in a 1-L wide-mouth glass bottle (height 19.5 cm, bottom diameter 10.5 cm, mouth i.d. 5.5 cm) containing pieces of tissue paper. […] Five different concentrations of the test chemicals were placed on pieces of cellulose-based qualitative filter paper. Each of the filter papers was placed in a bottle to have 5 appropriate concentrations in serial dilutions. DDVP was the positive control, and no chemical treatments were the negative control. All treatments and controls were in triplicate. Mortality was observed periodically in a 10-30 minute interval for 2 days or until all insects died. The death was defined as no movement when the insects were touched.

[8] = test system: Megalurothrips usitatus (flower Thrips); conditions: adult M. usitatus, 24 hours of fumigation in 1-L flasks
[9] = molecular target: T1, recombinant gamma-aminobutyric acid receptor-associated protein (rGABARAP) (Frankliniella occidentalis, UniProt A0A6J1T1Q2); experiment: Microscale thermophoresis (MST) binding to rGABARAP
T1 sequence (A0A6J1T1Q2 1-118): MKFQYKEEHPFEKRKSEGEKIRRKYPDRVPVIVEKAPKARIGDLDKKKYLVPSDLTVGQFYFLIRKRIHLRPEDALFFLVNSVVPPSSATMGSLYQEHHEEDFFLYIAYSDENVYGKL
Text: (§5) Preparation of recombinant GABARAP (rGABARAP) protein. RNA was extracted from F. occidentalis and cDNA was then synthesized. GABARAP (GenBank accession No. LOC113211372) was obtained after PCR amplification (Stafford-Banks, et al. (2014) Plos One 9:e94447).
(§6) Interaction between ME and rGABARAP. A Nano Temper Monolith NT.115 MST system (Nano Temper, Munich, Germany) was used to assess the binding affinities between the target compounds and rGABARAP according to the published procedures (Zan, et al. (2020) Journal of Agricultural and Food Chemistry 68:6280-6285). Spinosyn A was used as a chemical positive control. Spinosyn A (≥1 nM) can trigger a change of the Cl^− current of insect neuron GABAAR, which is considered to be an insecticidal action mechanism of spinosyn A (Watson (2001) Pesticide Biochemistry and Physiology 71:20-28). Ovalbumin (OVA) (Sangon Biotech, Shanghai, China) is a control protein consisting of 385 amino acid residues. The interaction between OVA and ME was used as a protein control experiment (Huntington, et al. (1995) Protein Science 4:613-621).

[10] = test system: T. chilonis (parasitic wasp); conditions: non-target parasitic wasp, mortality after 15 minutes of exposure
Text: as §4, §1

[11] = test system: Drosophila melanogaster (fruit fly); experiment: Median lethal concentration fumigation test, fruit fly; type: in vivo; conditions: mortality after 280 minutes
[12] = test system: Aedes aegypti (mosquito); experiment: Median knockdown concentration (KC50) test, mosquito; type: in vivo
Text: as §2
(§7) Knockdown Activity of Monoterpenes.

[13] = test system: Musca domestica (housefly); experiment: Median knockdown concentration (KC50) test, housefly; type: in vivo; conditions: Musca domestica
Text: as §2, §7

[14] = test system: honeybee Apis mellifera; experiment: 24-hour fumigation assay on honeybee; conditions: for Mortality ± STD: 60 bees; for toxicity to honeybee (in words): 24-hour fumigation
Text: Experiments were done with 20 bees per group in triplicate.
Activity of Monoterpenes Against Honeybees. The honeybee (Apis mellifera) is the most frequent floral visitor of crops worldwide.

[15] = test system: Thrips Megalurothrips usitatus; conditions: 24-hour fumigation assay, 0-0.192 μL/dm^3
[16] = test system: B. cucuribitae (melon fly); experiment: Median lethal time (LT50) test, melon fly; type: in vivo, Bactrocera cucuribitae
Text: as §2, §3

[17] = test system: Megalurothrips usitatus (Bagrall) (thrips); experiment: Median lethal concentration fumigation test, thrips
Text: as §1

[18] = test system: H. picinus (Nitidulid beetle); experiment: Median lethal time (LT50) test, Nitidulid beetle; type: in vivo, Haptoncus picinus
Text: as §2, §3

[19] = T 25 °C; cited from earlier work
[20] = test system: adult T. palmi; conditions: cited from earlier work
[21] = molecular target: T2, rGABARAP^Y174A (Frankliniella occidentalis, UniProt A0A6J1T1Q2); experiment: MST binding to rGABARAP mutant; conditions: read-out: Kd value, MST
T2 sequence (A0A6J1T1Q2 entry or part of it, stated change not applied): as the sequence (A0A6J1T1Q2 1-118) above
Method: as §6
(§8) Preparation of rGABARAP Mutant and Interaction Between ME and rGABARAP Mutant. […] DNAman was used to convert the nucleic acid sequence into an amino acid sequence and find the Y174 site. Y174 was mutated to A174. The rGABARAP mutant gene loaded into the pMCSG19 vector and the His tags at both ends of the sequence were retained to construct a prokaryotic expression plasmid. The carrier contained a maltose binding protein (MBP) tag that was not cut for verification. However, MBP and ME were used as treatment controls. The mutant plasmid was constructed in Sangon Biotech (Shanghai, China). The protein expression, purification, and desalting procedures of rGABARAP^Y174A mutant and rGABARAP were the same. Subsequently, the binding kinetics of ME and rGABARAP^Y174A were tested by MST and ITC.

[22] = test system: Frankliniella occidentalis second-instar nymphs; experiment: whole plant or invertebrate; conditions: 24 h
Method: Chemicals. […] These monoterpenes and the positive control spinosyn A (Bosite Technology, Chongqing, China) were dissolved in acetone (10 g/L).
Insects. F. occidentalis Thrips were provided by the Institute of Vegetables and Flowers, Chinese Academy of Agricultural Sciences (Beijing, China), and kept in a box (19 cm×14 cm×20 cm) at 27±1° C., humidity of 50%-60% and a photoperiod of 16:8 h (light:dark). The population was established with sword beans (Canavalia gladiata). Second-instar nymphs with the same growth were tested.
Insect Assays. […] The leaf blade (2 cm×3 cm) was immersed in the solution for 10 s in the test solution, and then air-dried until there were no water drops on the surface. The concentrations were the same as those used in the insecticide-impregnated membrane method. After the chemical film had been formed for 2 h, the infusion leaves were placed in the bottles. The second-instar nymphs were picked with a soft writing brush to make up ten insects per bottle. The bottles were sealed with plastic wrap. 1% Triton X-100 (m/V) aqueous solution as a blank control. Each treatment was repeated four times. The bottles were placed under temperature of 27±1° C., humidity of 50%-60% and photoperiod of 16:8 h (light:dark). […] The insects were touched with a soft brush and numbers of dead and living Thrips were recorded, followed by calculation of the mortality rates.

[23] = molecular target: T1, recombinant gamma-aminobutyric acid receptor-associated protein (rGABARAP); experiment: Isothermal titration calorimetry (ITC) binding to rGABARAP; conditions: 25° C., pH 7.4
Method: as §5
(§9) The isothermal titration thermal binding measurements were performed with an ITC-200 calorimeter (GE Healthcare, Boston, MA) at 25° C. in a buffer containing 50 mM Tris-HCl and 100 mM NaCl (pH 7.4). […] The MicroCal Origin 7.0 software system was used for data processing. The first run was a pre-run and was excluded from the final data. The amount of protein in the sample pool was constant. […] The experimental bimolecular interaction data from the 18 drops were used to calculate the dissociation constant. The dissociation constant […] was calculated as 1/K (Li, et al. (2018) RSC Advances 8:18952-18958).

[24] = molecular target: T2, rGABARAP^Y174A; experiment: ITC binding to rGABARAP mutant
Method: as §9, §8

[25] = rGABARAP, read-out: Kd value, MST
[26] = adult thrips, exposed one hour, mortality observed in 24 hours

Compound: CC(C)=C1CC[C@@H](C)CC1=O [(+)-Pulegone]
- LC50 (fiducial limits) ([1]; in vivo): 2.52 µg/mL (≈ 16.6 µM)
- LC90 (fiducial limits) ([1]; spider mites, exposed one hour): 40.8 µg/mL (≈ 268 µM)
- LC90 (fiducial limits) ([2]; adult housefly, exposed one hour, mortality in 24 hours): 11.9 µg/mL (≈ 78.2 µM)
- LC50 (fiducial limits) ([2]; in vivo): 7.38 µg/mL (≈ 48.5 µM)
- LC90 (fiducial limits) ([3]; adult mosquito, exposed 30 minutes, mortality in 24 hours): 16.8 µg/mL (≈ 110 µM)
- LC50 (fiducial limits) ([3]; in vivo): 10.3 µg/mL (≈ 67.7 µM)
- LC50 (fiducial limits) ([4]; in vivo): 112 µg/mL (≈ 736 µM)
- LC90 (fiducial limits) ([4]; melon fly): 657 µg/mL (≈ 4320 µM)
- LC90 (fiducial limits) ([5]; cockroach second instar nymphs, exposed one hour): 173 µg/mL (≈ 1140 µM)
- LC50 (fiducial limits) ([5]; in vivo): 15.0 µg/mL (≈ 98.5 µM)
- LT50 (fiducial limits) [6]: 3.47 h
- LT50 fold greater than that of DDVP ([7]; A. japonicus): approximately 1.2 fold
- LT50 (fiducial limits) against A. japonicus ([7]; non-target parasitic wasp): 0.47 (0.00-0.68) hour
- activity against flower Thrips in preliminary screening [8]: exhibit insecticidal activity
- Kd [9, 25]: 1.72 µM
- LC50 (fiducial limits) against T. chilonis [10]: 2.02 µg/mL and 2.06 µg/mL
- LC90 (fiducial limits) against T. chilonis [10]: 12.1 µg/mL (≈ 79.5 µM)
- LC50 (fiducial limits) [11]: 0.043 ng/mL (≈ 0.000282 µM)
- LC90 (fiducial limits) [11]: 0.00014 µg/mL (≈ 0.00092 µM)
- KC50 (fiducial limits) ([12]; 10 Minutes): 19.6(8.41-35.5) μg/cm^3
- KC50 (fiducial limits) ([12]; 20 Minutes): 1.40 µg/mL
- KC50 (fiducial limits) ([12]; 30 Minutes): 1.4 µg/mL
- KC50 (fiducial limits) ([13]; 20 Minutes): >243 µg/mL
- KC50 (fiducial limits) ([13]; 30 Minutes): 12.2 µg/mL
- Mortality ± STD ([14]; 0.012 μL/dm^3, 24-hour fumigation): 5.0 ± 8.7%
- Mortality ± STD ([14]; 0.024 μL/dm^3, 24-hour fumigation): 3.3 ± 5.8%
- Mortality ± STD ([14]; 0.048 μL/dm^3, 24-hour fumigation): 5.0 ± 5.0%
- Mortality ± STD ([14]; 0.096 μL/dm^3, 24-hour fumigation): 5.0 ± 5.0%
- Mortality ± STD ([14]; 0.192 μL/dm^3, 24-hour fumigation): 8.3 ± 7.6%
- mortality relative to no chemical control ([14]; 0.2 μL/dm^3, 24-hour fumigation): 3%
- toxicity to honeybee (in words) [14]: little lethal toxicity
- toxicity to honeybee (in words) ([14]; listed as (+)-pulegone): failed to have a negative impact
- LC50 [15]: 0.079 μL/dm^3
- LT50 (fiducial limits) [16]: 0.87 h
- fold faster action relative to the other five monoterpenes (LT50) [16]: at least 1.9 fold
- LC50 (fiducial limits) [17, 26]: 0.20 µg/mL (≈ 1.31 µM)
- LC90 (fiducial limits) [17, 26]: 0.67 µg/mL (≈ 4.4 µM)
- LC50 (fiducial limits) ([17]; adult thrips, exposed one hour, mortality observed in 24 hours, listed as (+)-pulegone): 0.196 µg/mL (≈ 1.29 µM)
- activity fold greater (smaller LC50) than positive control DDVP ([17]; thrips): 3.5 fold
- LT50 (fiducial limits) [18]: 0.50 h
- fold faster action relative to the other five monoterpenes (LT50) [18]: ≥ 1.2 fold
- LT50 (fiducial limits) ([18]; listed as (+)-pulegone): 0.500 h
- Vp (Pa)/T (° C.) [19]: 16.3/25 Pa

Compound: CC(C)=C1CC[C@H](C)CC1=O [(−)-Pulegone]
- LC50, fumigation toxicity [20]: 9.5 µg/mL (≈ 62.4 µM)
- Kd [9, 25]: 2.53 µM
- LC50 (fiducial limits) [11]: 0.106 ng/mL (≈ 0.000696 µM)
- LC90 (fiducial limits) [11]: 0.000359 µg/mL (≈ 0.00236 µM)
- LC50 [15]: 0.119 μL/dm^3
- Vp (Pa)/T (° C.) [19]: 16.3/25 Pa

Compound: COc1cccc2c1cc([N+](=O)[O-])c1c(C(=O)O)cc3c(c12)OCO3 [Aristolochic acid A, 3,4-methylenedioxy-8-methoxy-10-nitro-1-phenanthrenecarboxylicacid, reference compound]
- Kd [21]: 158 ± 82 µM
- Kd [9]: 146 µM
- LC50 [22]: 40 µg/mL (≈ 117 µM)
- Kd value, ITC [23]: no binding
- Kd value, ITC [24]: No binding
